Measured values taken from ChEMBL document CHEMBL5705888, “Substrate specificity and inhibitors of LRRK2, a protein kinase mutated in Parkinson's disease” (Biochem J, 2009).

Molecular target: T1, Mitogen-activated protein kinase 15 (Homo sapiens) (UniProt Q8TD08)
T1 sequence (whole entry): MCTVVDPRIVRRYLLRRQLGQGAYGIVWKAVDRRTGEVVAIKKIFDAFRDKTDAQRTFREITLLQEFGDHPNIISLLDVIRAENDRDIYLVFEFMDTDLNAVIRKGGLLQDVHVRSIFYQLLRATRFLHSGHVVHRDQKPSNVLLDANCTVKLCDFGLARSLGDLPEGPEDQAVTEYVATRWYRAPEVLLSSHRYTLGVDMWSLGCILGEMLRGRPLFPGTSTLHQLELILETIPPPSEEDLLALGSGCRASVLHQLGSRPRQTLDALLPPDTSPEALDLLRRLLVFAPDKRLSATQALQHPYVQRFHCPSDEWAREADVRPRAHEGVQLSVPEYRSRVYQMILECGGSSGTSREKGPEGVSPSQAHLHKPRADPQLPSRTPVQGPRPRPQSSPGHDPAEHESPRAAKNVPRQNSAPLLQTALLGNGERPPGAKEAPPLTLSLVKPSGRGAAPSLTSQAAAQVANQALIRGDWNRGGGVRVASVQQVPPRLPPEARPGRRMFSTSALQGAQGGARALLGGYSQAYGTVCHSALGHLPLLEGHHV
Experiment: Inhibition of ERK8 (unknown origin) at 10 uM incubated for 30 mins in presence of [gamma-33P]ATP by multidrop micro reagent based assay relative to control

O=S(=O)(c1cccc2cnccc12)N1CCCNCC1 [FASUDIL]
inhibition: 68%
